According to patent publication US20230255935A1, “ANTI-VIRAL COMPOUNDS AND METHODS FOR SCREENING SAME AND TREATING VIRAL INFECTIONS” (priority 2020, published 2023):

Molecular target: full-length MERS-CoV N protein (Middle East respiratory syndrome-related coronavirus, UniProt K9N4V7)

With `CN(C)Cc1c[nH]c2ccc(OCc3ccccc3)cc12` [PSX-01, 5-benzyloxygramine] the “radius of gyration (Rg) of N protein” value was 65.
